# Measured values reported in US6908913B2, “Carbapenem derivatives” (Meiji Seiki Kaisha, Ltd., priority 2000, dated 2005).
# Legend:
# [1] = test system: K. pneumoniae PCI602; test: Antibiotic activities (MIC), agar dilution; format: cell-based; details: Klebsiella pneumoniae, Sensitivity Disk agar-N+5% Horse blood, inoculant 10^6 CFU/ml, read-out: minimum inhibiting concentration (MIC)
# Experimental: (§1) The minimum inhibiting concentrations (MIC, μg/ml) of representative compounds among the novel carbapenem derivatives according to the present invention to various pathogenic bacteria were measured in accordance with the method described in CHEMOTHERAPY, vol. 16, No. 1, 99, 1968. The culture medium for measurement was Sensitivity Disk agar-N+5% Horse blood, and the amount of inoculants was 10^6 CFU/ml.
# [2] = test system: S. aureus M126 HR (methicillin-hyperresistant strain); test: Antibiotic activities (MIC), agar dilution; format: cell-based; details: Staphylococcus aureus, Sensitivity Disk agar-N+5% Horse blood, inoculant 10^6 CFU/ml, read-out: minimum inhibiting concentration (MIC)
# Experimental: as §1
# [3] = test system: B. catarrhalis W-0500; test: Antibiotic activities (MIC), agar dilution; format: cell-based; details: Moraxella catarrhalis, W0500, Sensitivity Disk agar-N+5% Horse blood, inoculant 10^6 CFU/ml, read-out: minimum inhibiting concentration (MIC)
# Experimental: as §1
# [4] = test system: E. coli NIHJ JC-2; test: Antibiotic activities (MIC), agar dilution; format: cell-based; details: Escherichia coli, NIHJJC2, Sensitivity Disk agar-N+5% Horse blood, inoculant 10^6 CFU/ml, read-out: minimum inhibiting concentration (MIC)
# Experimental: as §1
# [5] = test system: S. pneumoniae PRC9 (penicillin-hyperresistant strain); test: Antibiotic activities (MIC), agar dilution; format: cell-based; details: Streptococcus pneumoniae, Sensitivity Disk agar-N+5% Horse blood, inoculant 10^6 CFU/ml, read-out: minimum inhibiting concentration (MIC)
# Experimental: as §1
# [6] = test system: S. aureus M126 (methicillin-hyperresistant strain); test: Antibiotic activities (MIC), agar dilution; format: cell-based; details: Staphylococcus aureus, Sensitivity Disk agar-N+5% Horse blood, inoculant 10^6 CFU/ml, read-out: minimum inhibiting concentration (MIC)
# Experimental: as §1
# [7] = test system: S. aureus 209P JC-1; test: Antibiotic activities (MIC), agar dilution; format: cell-based; details: Staphylococcus aureus, Sensitivity Disk agar-N+5% Horse blood, inoculant 10^6 CFU/ml, read-out: minimum inhibiting concentration (MIC)
# Experimental: as §1
# [8] = test system: H. influenzae PRC44; test: Antibiotic activities (MIC), agar dilution; format: cell-based; details: Haemophilus influenzae, Sensitivity Disk agar-N+5% Horse blood, inoculant 10^6 CFU/ml, read-out: minimum inhibiting concentration (MIC)
# Experimental: as §1
# [9] = test system: Staphylococcus aureus MF126 (MRSA); test: Therapeutic effect on mice subjected to general infection with MRSA; format: in vivo; details: cyclophosphamide-treated mice, subcutaneous with cilastatin 2 and 4 hours after infection, survival rate on seventh day
# Experimental: The therapeutic effect of representative compounds among the novel carbapenem derivatives according to the present invention on mice subjected to general infection with MRSA were assayed by the following method, and the results are shown in Table 2. Specifically, cyclophosphamide (200 mg/kg) was administered intraperitoneally to mice (n=8), and, four days after the administration of cyclophosphamide, Staphylococcus aureus MF126 (MRSA) was inoculated intraperitoneally to infect the mice with MRSA. Cilastatin (1 mg/mouse) and the carbapenem compound in an indicated amount were subcutaneously administered two hours and four hours after the infection. ED50 was calculated based on the survival rate on the seventh day after the infection.
# [10] = format: in vivo; details: intravenously, 1,000 mg/kg, ICR male mice, three mice per group
# Experimental: The compound of Example 1 was administered intravenously to mice (ICR, male, each group consisting of three mice) in an amount of 2,000 mg/kg.
# The compound of Example 2 was administered intravenously to mice (ICR, male, each group consisting of three mice) in an amount of 1,000 mg/kg.
# [11] = Amount of inoculant: 2.8 × 10^6 CFU/mouse
# [12] = Amount of inoculant: 5.9 × 10^6 CFU/mouse
SMILES,MIC [1] [µg/mL],MIC [2] [µg/mL],MIC [3] [µg/mL],MIC [4] [µg/mL],MIC [5] [µg/mL],MIC [6] [µg/mL],MIC [7] [µg/mL],MIC [8] [µg/mL],"ED50 [9, 11] [mg/mouse]",ED50 ([9]; Amount of inoculant: 2.5 × 10^6 CFU/mouse) [mg/mouse],"ED50 [9, 12] [mg/mouse]",survival in acute toxicity test [10],ED50 ([9]; Amount of inoculant: 2.9 × 10^6 CFU/mouse) [mg/mouse]
"C[C@@H](O)[C@H]1C(=O)N2C(C(=O)[O-])=C(c3cn4cnc(C(=O)c5ccccc5)c4s3)[C@H](C)[C@H]12.[Na+] [Compound B, Sodium (1S,5R,6S)-2-(7-benzoylimidazo[5,1-b]thiazol-2-yl)-6-((1R)-1-hydroxyethyl)-1-methyl-1-carbapen-2-em-3-carboxylate, reference compound]",3.13,6.25,< 0.025,3.13,0.1,1.56,< 0.006,0.1,–,–,–,–,–
"C[C@@H](O)[C@H]1C(=O)N2C(C(=O)O)=C(SCCN=CN)C[C@H]12 [Compound C, Imipenem, reference compound]",0.25,64,0.063,0.125,0.25,4,0.008,8,–,–,–,–,–
"C[C@@H](O)[C@H]1C(=O)N2C(C(=O)O)=C(c3cn4cnc(C(=O)[C@@H]5CCCN5)c4s3)[C@H](C)[C@H]12 [Example 11, Sodium (1S,5R,6S)-6-((1R)-1-hydroxyethyl)-1-methyl-2-[7-((2S)-pyrrolidin-2-yl)carbonylimidazo[5,1-b]thiazol-2-yl]-1-carbapen-2-em-3-carboxylate]",–,–,–,–,–,–,–,–,0.25,–,–,–,–
"C[C@@H](O)[C@H]1C(=O)N2C(C(=O)[O-])=C(c3cn4cnc(C(=O)c5cc(SCCN)c[n+](CC(=O)O)c5)c4s3)[C@H](C)[C@H]12 [Example 37, (1S,5R,6S)-2-[7-[5-(2-Aminoethyl)thio-1-carboxylmethylpyridinium-3-yl]carbonylimidazo[5,1-b]-thiazol-2-yl]-6-((1R)-1-hydroxyethyl)-1-methyl-1-carbapen-2-em-3-carboxylate]",–,–,–,–,–,–,–,–,–,0.139,–,–,–
"CN[C@H](CC(C)C)C(=O)N[C@H]1C(=O)N[C@@H](CC(N)=O)C(=O)N[C@H]2C(=O)N[C@H]3C(=O)N[C@H](C(=O)N[C@H](C(=O)O)c4cc(O)cc(O)c4-c4cc3ccc4O)[C@H](O)c3ccc(c(Cl)c3)Oc3cc2cc(c3O[C@@H]2O[C@H](CO)[C@@H](O)[C@H](O)[C@H]2O[C@H]2C[C@](C)(N)[C@H](O)[C@H](C)O2)Oc2ccc(cc2Cl)[C@H]1O [Vancomycin, reference compound]",–,–,–,–,–,–,–,–,0.50,–,0.71,–,–
"CC(=O)c1ncn2cc(C3=C(C(=O)[O-])N4C(=O)[C@H]([C@@H](C)O)[C@H]4[C@H]3C)sc12.[Na+] [Compound A, Sodium (1S,5R,6S)-2-(7-acetylimidazo[5,1-b]thiazol-2-yl)-6-((1R)-1-hydroxyethyl)-1-methyl-1-carbapen-2-em-3-carboxylate, reference compound]",0.25,8,0.031,0.125,0.063,1,0.016,0.031,–,–,–,–,–
"C[C@@H](O)[C@H]1C(=O)N2C(C(=O)[O-])=C(c3cn4cnc(C(=O)c5ccc[n+](CC(N)=O)c5)c4s3)[C@H](C)[C@H]12 [Example 2, (1S,5R,6S)-2-[7-(1-Carbamoylmethylpyridinium-3-yl)carbonylimidazo[5,1-b]thiazol-2-yl]-6-((1R)-1-hydroxyethyl)-1-methyl-1-carbapen-2-em-3-carboxylate]",0.063,2,0.016,0.031,0.031,0.5,< 0.008,0.031,0.07,–,–,all of the mice survived,–
"C[C@@H](O)[C@H]1C(=O)N2C(C(=O)[O-])=C(c3cn4cnc(C(=O)c5ccc[n+](CCNS(N)(=O)=O)c5)c4s3)[C@H](C)[C@H]12 [Example 65, (1S,5R,6S)-6-((1R)-1-Hydroxyethyl)-1-methyl-2-[7-[1-(2-sulfamoylaminoethyl)pyridinium-3-yl]carbonylimidazo[5,1-b]thiazol-2-yl]-1-carbapen-2-em-3-carboxylate]",–,–,–,–,–,–,–,–,–,–,0.32,–,–
"C[C@@H](O)[C@H]1C(=O)N2C(C(=O)[O-])=C(c3cn4cnc(C(=O)c5ccc[n+](CC(N)=O)c5)c4s3)C[C@H]12 [Example 39, (5R,6S)-2-[7-(1-Carbamoylmethylpyridinium-3-yl)carbonylimidazo[5,1-b]thiazol-2-yl]-6-((1R)-1-hydroxyethyl)-1-carbapen-2-em-3-carboxylate]",0.031,1,0.031,0.031,0.031,0.25,0.008,0.063,–,–,–,–,0.02
"C[C@@H](O)[C@H]1C(=O)N2C(C(=O)O)=C(c3cn4cnc(C(=O)c5cccnc5)c4s3)[C@H](C)[C@H]12 [Example 1, Sodium (1S,5R,6S)-6-((1R)-1-hydroxyethyl)-1-methyl-2-[7-(pyridin-3-yl)carbonylimidazo[5,1-b]thiazol 2-yl]-1-carbapen-2-em-3-carboxylate]",1,4,0.016,1,0.031,1,< 0.008,0.031,–,–,–,–,–
